Data taken from ChEMBL document CHEMBL1201862, “PubChem BioAssay data set” (2004).
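Results reflect a 48-hour exposure of cells in 96-well plates to compound at five concentrations. Abbreviation: GI50, concentration required for 50% inhibition of growth.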 Active and inactive are the calls of the source. Cut-off read from the data, not from the text of the source: active = GI50 up to about 1.1 µM and inactive = higher.

Key:
Experiment in all cases: NCI anticancer screen, dose series, 48 h
[1] = test system: 786-0
[2] = test system: HCC 2998
[3] = test system: RXF 393
[4] = test system: SF-268
[5] = test system: SF-539
[6] = test system: K562
[7] = test system: NCI-H522
[8] = test system: HL-60
[9] = test system: TK-10
[10] = test system: NCI-H460
[11] = test system: UACC-62
[12] = test system: MOLT-4
[13] = test system: MDA-N
[14] = test system: PC-3
[15] = test system: SNB-19
[16] = test system: OVCAR-3
[17] = test system: SN12C
[18] = test system: SK-MEL-28
[19] = test system: KM12
[20] = test system: ACHN

Measured: GI50

O=C(O)C(CO)NC(=O)C1C(C(=O)O)C(c2ccccc2[N+](=O)[O-])C=C(c2ccco2)N1c1ccncc1 (stereo not given)
inactive: [1] 3.08 µM | [2] 4.91 µM | [3] 1.64 µM | [4] 12.6 µM | [5] 1.84 µM | [6] 1.99 µM | [7] 4.61 µM | [8] 2.97 µM | [9] 2.9 µM | [10] 6.31 µM | [11] 7.83 µM | [12] 2.44 µM | [13] 2.84 µM | [14] 9.35 µM | [15] 12 µM | [16] 6.28 µM | [17] 4.62 µM | [18] 9.55 µM | [19] 1.73 µM | [20] 1.91 µM
